Test results as given in patent publication US20050112573A1, “Method of detecting toxic substance” (priority 2001, published 2005).

Tested on: yeast genes (level of expressed mRNA)
Experiment: DNA chip analysis of expressed mRNA of yeast genes after 2 h culture with a toxic chemical substance
Type: cell-based, Saccharomyces cerevisiae S288C
Description: Yeast (Saccharomyces cerevtisiae S288C (α SUC2mal mel gap2 CUP1)) were cultured at 25° C. on YPD medium (yeast extract 1%, polypepton 2%, glucose 2%). One of toxic chemical substances was added to the cell at logarithmic growth phase, and the cell was further cultured for two hours. Cell was cultured without any chemical substance in the same condition, and was used as control. Concentrations of the chemical substances were defined to inhibit the growth of the yeast but not lead to death.
After the completion of cultivation, the culture was centrifuged to collect the cells. To the cells, sodium acetate buffer (50 mM sodium acetate, 10 mM EDTA, 1% SDS) was added, and the mixture was shaken at 65° C. for five minutes, followed by returning to room temperature, and obtaining the supernatant, which procedure was repeated two times. To the supernatant, ½ amount of a solution of phenol/chloroform was added, and the mixture was centrifuged to give a supernatant, which was added with an equal amount of chloroform, and the mixture was centrifuged to give a supernatant. To the supernatant, an equal amount of isopropanol containing 0.3 M sodium acetate was added, and the mixture was allowed to stand at room temperature for 30 minutes, after which the mixture was centrifuged to give a sediment of the whole RNAs. Seventy % ethanol was added to the sediment, and the mixture was again centrifuged to give a sediment, which was then dried and dissolved in water. mRNA was isolated from the whole RNAs as followings. In view of the fact that a poly A chain is attached to the 3′ terminus of mRNA, a polynucleotide having a poly T structure which was immobilized on the surface of latex beads was used to trap the mRNA, and then the mRNA was washed and eluted with spine column (Oligotex-dT30<Super>mRNA Purification Kit, Takara). Reverse transcription of the mRNA was conducted with a reverse transcriptase (Super Script II Reverse Transcriptase; catalogue No. 18064-014, GibcoBRL) using fluorescence-labeled nucleotides to give cDNAs that were introduced with Cy3-dUTP or Cy5-dUTP during the reverse transcription.
The labeled cDNAs were dissolved in TE buffer (10 mM Tris-HCl/1 mM EDTA, pH8.0), and the solution was dropped on the DNA chip containing the whole genes of yeast (DNA Chip Research Inc. Japan) so that the cDNAs were hybridized on the DNA chip at 65° C. for over 12 hours. The fluoresces intensity of the DNA chip was read with a scanner, and the ratio relative to the fluorescence intensity resulting from the absence of chemical substance was estimated as the following, which is shown in Tables 1 to 9: [formula]
In the Tables, “Intensity” indicated in the rightmost column is a value of the level of expressed mRNA of each gene in control cells as divided by the average level of the expressions of the whole genes.

CCCCCCCCCCCCOS(=O)(=O)[O-].[Na+] [(18), sodium lauryl sulfate]
level of expressed mRNA in the presence of chemical substance/in its absence (gene YAL012W): 0.8
The level of expressed mRNA in the presence of chemical substance/absence: YAL014C (gene YAL014C): 1.1
The level of expressed mRNA in the presence of chemical substance/absence: YAL017W (gene YAL017W): 1.2
The level of expressed mRNA in the presence of chemical substance/absence: YAL018C (gene YAL018C): 0.9
level of expressed mRNA in the presence of chemical substance/in its absence (gene YAL038W): 1.0
level of expressed mRNA in the presence of chemical substance/in its absence (gene YAL044C): 1.8
The level of expressed mRNA in the presence of chemical substance/absence: YAL049C (gene YAL049C): 1.8
level of expressed mRNA in the presence of chemical substance/in its absence (gene YAL054C): 1.4
The level of expressed mRNA in the presence of chemical substance/absence: YAR047C (gene YAR047C): 1.0
The level of expressed mRNA in the presence of chemical substance/absence: YAR064W (gene YAR064W): 0.9
level of expressed mRNA in the presence of chemical substance/in its absence (gene YAR071W): 1.6
level of expressed mRNA in the presence of chemical substance/in its absence (gene YBL001C): 1.8
The level of expressed mRNA in the presence of chemical substance/absence: YBL044W (gene YBL044W): 0.8
The level of expressed mRNA in the presence of chemical substance/absence: YBL100C (gene YBL100C): 0.8
The level of expressed mRNA in the presence of chemical substance/absence: YBR012C (gene YBR012C): 1.2
The level of expressed mRNA in the presence of chemical substance/absence: YBR013C (gene YBR013C): 1.1
level of expressed mRNA in the presence of chemical substance/in its absence (gene YBR014C): 1.6
level of expressed mRNA in the presence of chemical substance/in its absence (gene YBR023C): 0.9
level of expressed mRNA in the presence of chemical substance/in its absence (gene YBR029C): 0.8
level of expressed mRNA in the presence of chemical substance/in its absence (gene YBR035C): 1.9
level of expressed mRNA in the presence of chemical substance/in its absence (gene YBR050C): 1.8
The level of expressed mRNA in the presence of chemical substance/absence: YBR051W (gene YBR051W): 0.8
The level of expressed mRNA in the presence of chemical substance/absence: YBR063C (gene YBR063C): 1.2
The level of expressed mRNA in the presence of chemical substance/absence: YBR066C (gene YBR066C): 1.2
level of expressed mRNA in the presence of chemical substance/in its absence (gene YBR068C): 1.3
level of expressed mRNA in the presence of chemical substance/in its absence (gene YBR111C): 2.4
The level of expressed mRNA in the presence of chemical substance/absence: YBR124W (gene YBR124W): 0.9
The level of expressed mRNA in the presence of chemical substance/absence: YBR129C (gene YBR129C): 1.5
level of expressed mRNA in the presence of chemical substance/in its absence (gene YBR145W): 2.0
The level of expressed mRNA in the presence of chemical substance/absence: YBR162C (gene YBR162C): 1.3
level of expressed mRNA in the presence of chemical substance/in its absence (gene YBR183W): 2.4
level of expressed mRNA in the presence of chemical substance/in its absence (gene YBR222C): 0.9
The level of expressed mRNA in the presence of chemical substance/absence: YBR255W (gene YBR255W): 1.0
The level of expressed mRNA in the presence of chemical substance/absence: YBR281C (gene YBR281C): 0.8
The level of expressed mRNA in the presence of chemical substance/absence: YBR287W (gene YBR287W): 1.9
level of expressed mRNA in the presence of chemical substance/in its absence (gene YBR299W): 1.1
level of expressed mRNA in the presence of chemical substance/in its absence (gene YCL009C): 0.8
The level of expressed mRNA in the presence of chemical substance/absence: YCL044C (gene YCL044C): 0.6
The level of expressed mRNA in the presence of chemical substance/absence: YCL056C (gene YCL056C): 1.5
level of expressed mRNA in the presence of chemical substance/in its absence (gene YCL064C): 0.3
The level of expressed mRNA in the presence of chemical substance/absence: YCR007C (gene YCR007C): 2.1
level of expressed mRNA in the presence of chemical substance/in its absence (gene YCR037C): 0.9
level of expressed mRNA in the presence of chemical substance/in its absence (gene YCR048W): 0.8
level of expressed mRNA in the presence of chemical substance/in its absence (gene YCR098C): 1.6
level of expressed mRNA in the presence of chemical substance/in its absence (gene YDL022W): 1.4
The level of expressed mRNA in the presence of chemical substance/absence: YDL046W (gene YDL046W): 1.6
The level of expressed mRNA in the presence of chemical substance/absence: YDL089W (gene YDL089W): 1.1
The level of expressed mRNA in the presence of chemical substance/absence: YDL173W (gene YDL173W): 1.8
The level of expressed mRNA in the presence of chemical substance/absence: YDL193W (gene YDL193W): 1.4
The level of expressed mRNA in the presence of chemical substance/absence: YDL233W (gene YDL233W): 1.4
level of expressed mRNA in the presence of chemical substance/in its absence (gene YDR009W): 1.0
level of expressed mRNA in the presence of chemical substance/in its absence (gene YDR019C): 1.6
The level of expressed mRNA in the presence of chemical substance/absence: YDR071C (gene YDR071C): 1.6
The level of expressed mRNA in the presence of chemical substance/absence: YDR078C (gene YDR078C): 1.2
The level of expressed mRNA in the presence of chemical substance/absence: YDR090C (gene YDR090C): 1.1
The level of expressed mRNA in the presence of chemical substance/absence: YDR109C (gene YDR109C): 0.9
The level of expressed mRNA in the presence of chemical substance/absence: YDR128W (gene YDR128W): 0.9
